Read-outs that look alike come from different tables or passages of the source.
Experiments:
Assay in all cases: MIC, serial dilutions in Müller-Hinton broth
Format in all cases: cell-based
[1] = tested on: S. aureus 21
Protocol: (§1) A comparative assessment of the spectrum of antibacterial action was carried out on archival and clinical strains of gram-positive and gram-negative microorganisms in accordance with the [Opredeleniye chuvstvitel'nosti mikroorganizmov k antibakterial'nym preparatam (Metodicheskiye ukazaniya MUK 4.2.1890-04). Utverzhdeny i vvedeny v deystviye Glavnym gosudarstvennym sanitarnym vrachom Rossiyskoy Federatsii G. G. Onishchenko 04.03.2004 g. Determination of the sensitivity of microorganisms to antibacterial drugs (Guidelines MUK 4.2.1890-04). Approved and put into effect by the Chief State Sanitary Doctor of the Russian Federation G. G. Onishchenko on 4 Mar. 2004].
(§2) The value of the minimum inhibitory concentration (MIC) was determined by the method of serial dilutions on Müller-Hinton broth using 96-well sterile plates. Two-fold dilutions of the test substances in a nutrient medium were prepared. The final concentrations were 1-128 ug/ml. The growth of cultures was assessed visually, comparing the growth of microorganisms in the presence of test compounds with the growth of culture without them. […] The first lowest concentration of the studied substance (from a series of consecutive dilutions), where bacterial growth is not visually determined, is considered to be the minimum inhibitory concentration (MIC). MIC was determined by the method of serial dilutions in broth with increment=2, so the differences of neighboring dilutions are not considered to be significant. In each experience there is a positive (broth with growing culture) and a negative (broth without growing culture) control.
(§3) To determine the MIC, 10 μl of culture medium was taken from those wells in which growth was not observed, and inoculation was performed on a dense Müller-Hinton broth. For the preparation of the inoculum, a pure, daily culture of gram-positive and gram-negative microorganisms grown on a dense nutrient medium was used. Nutrient medium is Müller-Hinton broth, which was prepared from dry media (Müller-Hinton broth, Acumedia, Baltimore), cultivation was carried out on agarized Müller-Hinton broth, including an additional 2% agar. The media were autoclaved at 121° C. for 15 minutes. In a sterile isotonic solution of sodium chloride, a suspension of microorganisms was prepared, adjusting the inoculum density to 0.5 according to the McFarland standard (1.5·10^8 CFU/ml). Then, the resulting inoculum was diluted to a concentration of 10^7 CFU/ml with Müller-Hinton broth. The inoculum was used within 15 minutes after preparation; the purity of the bacterial strains was monitored before each experiment.
(§4) 100 μl of Müller-Hinton broth was added to the wells of each plate; The tested substance was introduced into the first well at a concentration of 128 μg/ml in a volume of 100 μl and its concentration was adjusted to 0.5 μg/ml by consecutive two-fold dilution. Then, the prepared inoculum (100 μI) was added to each well, thereby diluting twice the concentration of the studied compounds. […] In addition, the purity of nutrient media and solvents was monitored. The plates were incubated in a thermostat at 37° C. for 24 hours. The growth of cultures was assessed visually, comparing the growth of microorganisms in the presence of test compounds with the growth of culture without them.
(§5) For the MIC was taken the minimum concentration of the studied compounds, providing complete suppression of the visible growth of the studied strains of microorganisms. The maximum value obtained in three independent experiments was taken as the MIC of the compound.

[2] = tested on: E. faecalis 23
Protocol: as §1, §2, §3, §4, §5

[3] = tested on: E. faecium 3028
Protocol: as §1, §2, §3, §4, §5

[4] = tested on: S. aureus 1065 MRSA
Protocol: as §1, §2, §3, §4, §5

[5] = tested on: S. aureus ATCC 209p
Protocol: as §1, §2, §3, §4, §5

[6] = tested on: E. faecium 25
Protocol: as §1, §2, §3, §4, §5

[7] = tested on: S. aureus 20
Protocol: as §1, §2, §3, §4, §5

[8] = tested on: S. aureus 983 MRSA
Protocol: as §1, §2, §3, §4, §5

[9] = tested on: S. aureus 22
Protocol: as §1, §2, §3, §4, §5

[10] = tested on: S. aureus 981 MRSA
Protocol: as §1, §2, §3, §4, §5

[11] = tested on: Kl. pneumoniae 1766
Protocol: as §1, §2, §3, §4, §5

[12] = tested on: Acinetobacter spp. 4
Protocol: as §1, §2, §3, §4, §5

[13] = tested on: Ps. aeruginosa ATTC 27853
Protocol: as §1, §2, §3, §4, §5

[14] = tested on: E. coli 13
Protocol: as §1, §2, §3, §4, §5

[15] = tested on: E. faecium 31
Protocol: as §1, §2, §3, §4, §5

[16] = tested on: Ps. aeruginosa 1913 PR
Protocol: as §1, §2, §3, §4, §5

[17] = tested on: Stenotrophomonas spp. 9
Protocol: as §1, §2, §3, §4, §5

[18] = tested on: E. faecalis 26
Protocol: as §1, §2, §3, §4, §5

[19] = tested on: E. faecalis 3047
Protocol: as §1, §2, §3, §4, §5

[20] = tested on: Kl. pneumoniae 645 PR
Protocol: as §1, §2, §3, §4, §5

[21] = tested on: S. aureus ATCC 29213
Protocol: as §1, §2, §3, §4, §5

[22] = tested on: Ps. aeruginosa 1959
Protocol: as §1, §2, §3, §4, §5

For `CCCCCCCCCCCC[N+](C)(C)Cc1cnc(C[N+](C)(C)CCCCCCCCCCCC)c2c1COC(CC)O2` (stereo not drawn) [Compound I, 5,8-(Bis(methylene (N, N-dimethyl-N-dodecylammonium))-2-ethyl-4H-[1,3]dioxino [4,5-c]pyridiniumdichloride], the MIC ([1]; Staphylococcus aureus, S. aureus 21, inoculum 10^7 CFU/ml, read-out: MIC) was 1 µg/mL, the MIC ([2]; Enterococcus faecalis, E. faecalis 23, inoculum 10^7 CFU/ml, read-out: MIC) was 0.03 µg/mL and the MIC ([3]; Enterococcus faecium, E. faecium 3028, inoculum 10^7 CFU/ml, read-out: MIC) was 1 µg/mL. It also gave an MIC ([4]; Staphylococcus aureus, S. aureus 1065 MRSA, inoculum 10^7 CFU/ml, read-out: MIC) of 2 µg/mL, an MIC ([5]; Staphylococcus aureus, ATCC209P, S. aureus ATCC 209p, inoculum 10^7 CFU/ml, read-out: MIC) of 2 µg/mL and an MIC ([6]; Enterococcus faecium, E. faecium 25, inoculum 10^7 CFU/ml, read-out: MIC) of 0.03 µg/mL. For the same compound, the MIC ([7]; Staphylococcus aureus, S. aureus 20, inoculum 10^7 CFU/ml, read-out: MIC) was 4 µg/mL, the MIC ([8]; Staphylococcus aureus, S. aureus 983 MRSA, inoculum 10^7 CFU/ml, read-out: MIC) was 8 µg/mL and the MIC ([9]; Staphylococcus aureus, S. aureus 22, inoculum 10^7 CFU/ml, read-out: MIC) was 1 µg/mL. The MIC ([10]; Staphylococcus aureus, S. aureus 981 MRSA, inoculum 10^7 CFU/ml, read-out: MIC) was 4 µg/mL, the MIC ([11]; Klebsiella pneumoniae, Kl. pneumoniae 1766, inoculum 10^7 CFU/ml, read-out: MIC) was 16 µg/mL and the MIC ([12]; Acinetobacter spp. 4, inoculum 10^7 CFU/ml, read-out: MIC) was 8 µg/mL. The MIC ([13]; Pseudomonas aeruginosa, ATTC27853, Ps. aeruginosa ATTC 27853, inoculum 10^7 CFU/ml, read-out: MIC) was 4 µg/mL, the MIC ([14]; Escherichia coli, E. coli 13, inoculum 10^7 CFU/ml, read-out: MIC) was 8 µg/mL and the MIC ([15]; Enterococcus faecium, E. faecium 31, inoculum 10^7 CFU/ml, read-out: MIC) was 0.03 µg/mL. It also gave an MIC ([16]; Pseudomonas aeruginosa, Ps. aeruginosa 1913 PR, inoculum 10^7 CFU/ml, read-out: MIC) of 64 µg/mL, an MIC ([17]; Stenotrophomonas spp. 9, inoculum 10^7 CFU/ml, read-out: MIC) of 8 µg/mL and an MIC ([18]; Enterococcus faecalis, E. faecalis 26, inoculum 10^7 CFU/ml, read-out: MIC) of 1 µg/mL. The MIC ([19]; Enterococcus faecalis, E. faecalis 3047, inoculum 10^7 CFU/ml, read-out: MIC) was 4 µg/mL, the MIC ([20]; Klebsiella pneumoniae, Kl. pneumoniae 645 PR, inoculum 10^7 CFU/ml, read-out: MIC) was 32 µg/mL and the MIC ([21]; Staphylococcus aureus, ATCC29213, S. aureus ATCC 29213, inoculum 10^7 CFU/ml, read-out: MIC) was 4 µg/mL. For the same compound, the MIC ([22]; Pseudomonas aeruginosa, Ps. aeruginosa 1959, inoculum 10^7 CFU/ml, read-out: MIC) was 32 µg/mL.

Compound `CCCCCCCCCCCCCC(=O)NCCC[N+](C)(C)Cc1ccccc1.O.[Cl-]` [Miramistin, benzyldimethyl [3-(myristoylamino)propyl]-ammonium chloride monohydrate] has an MIC ([1]; Staphylococcus aureus, 21) of 16 µg/mL, an MIC ([2]; Enterococcus faecalis, 23) of 4 µg/mL and an MIC ([3]; Enterococcus faecium, 3028) of 16 µg/mL. The MIC ([4]; Staphylococcus aureus, MRSA) was 8 µg/mL, the MIC ([5]; Staphylococcus aureus, ATCC209P) was 8 µg/mL and the MIC ([6]; Enterococcus faecium, 25) was < 0.5 µg/mL. For the same compound, the MIC ([7]; Staphylococcus aureus, 20) was 32 µg/mL, the MIC ([8]; Staphylococcus aureus, MRSA) was 4 µg/mL and the MIC ([9]; Staphylococcus aureus, 22) was 8 µg/mL. The MIC ([10]; Staphylococcus aureus, MRSA) was 4 µg/mL, the MIC ([11]; Klebsiella pneumoniae, 1766) was 64 µg/mL and the MIC ([12]; Acinetobacter, SPP.4) was > 64 µg/mL. The MIC ([13]; Pseudomonas aeruginosa, ATTC27853) was > 64 µg/mL, the MIC ([14]; Escherichia coli, 13) was 32 µg/mL and the MIC ([15]; Enterococcus faecium, 31) was 4 µg/mL. For the same compound, the MIC ([16]; Pseudomonas aeruginosa, 1913PR) was > 64 µg/mL, the MIC ([17]; Stenotrophomonas, SPP.9) was 64 µg/mL and the MIC ([18]; Enterococcus faecalis, 26) was 4 µg/mL. The MIC ([19]; Enterococcus faecalis, 3047) was 2 µg/mL, the MIC ([20]; Klebsiella pneumoniae, 645PR) was 64 µg/mL and the MIC ([21]; Staphylococcus aureus, ATCC29213) was 16 µg/mL. It also gave an MIC ([22]; Pseudomonas aeruginosa, 1959) of 64 µg/mL.

With “alkyldimethyl(phenylmethyl) ammonium chloride [Benzalconium chloride]” the MIC ([1]; S. aureus 21, inoculum 10^7 CFU/ml) was <0.5 µg/mL, the MIC ([2]; E. faecalis 23, inoculum 10^7 CFU/ml) was <0.5 µg/mL and the MIC ([3]; E. faecium 3028, inoculum 10^7 CFU/ml) was 4 µg/mL. For the same compound, the MIC ([4]; S. aureus 1065 MRSA, inoculum 10^7 CFU/ml) was 4 µg/mL, the MIC ([5]; S. aureus ATCC 209p, inoculum 10^7 CFU/ml) was 4 µg/mL and the MIC ([6]; E. faecium 25, inoculum 10^7 CFU/ml) was <0.5 µg/mL. The MIC ([7]; S. aureus 20, inoculum 10^7 CFU/ml) was <0.5 µg/mL, the MIC ([8]; S. aureus 983 MRSA, inoculum 10^7 CFU/ml) was 4 µg/mL and the MIC ([9]; S. aureus 22, inoculum 10^7 CFU/ml) was <0.5 µg/mL. For the same compound, the MIC ([10]; S. aureus 981 MRSA, inoculum 10^7 CFU/ml) was 4 µg/mL, the MIC ([11]; Kl. pneumoniae 1766, inoculum 10^7 CFU/ml) was 16 µg/mL and the MIC ([12]; Acinetobacter spp. 4, inoculum 10^7 CFU/ml) was 4 µg/mL. For the same compound, the MIC ([13]; Ps. aeruginosa ATTC 27853, inoculum 10^7 CFU/ml) was >64 µg/mL, the MIC ([14]; E. coli 13, inoculum 10^7 CFU/ml) was 2 µg/mL and the MIC ([15]; E. faecium 31, inoculum 10^7 CFU/ml) was <0.5 µg/mL. The MIC ([16]; Ps. aeruginosa 1913 PR, inoculum 10^7 CFU/ml) was >64 µg/mL, the MIC ([17]; Stenotrophomonas spp. 9, inoculum 10^7 CFU/ml) was 4 µg/mL and the MIC ([18]; E. faecalis 26, inoculum 10^7 CFU/ml) was 0.5 µg/mL. It also gave an MIC ([19]; E. faecalis 3047, inoculum 10^7 CFU/ml) of 2 µg/mL, an MIC ([20]; Kl. pneumoniae 645 PR, inoculum 10^7 CFU/ml) of 16 µg/mL and an MIC ([21]; S. aureus ATCC 29213, inoculum 10^7 CFU/ml) of 2 µg/mL. For the same compound, the MIC ([22]; Ps. aeruginosa 1959, inoculum 10^7 CFU/ml) was >64 µg/mL.
